IC50 data for 4 compounds are collected here from BindingDB's records for doi:10.1021/ja0466154 (Weizmann Institute of Science, 2004).

Assay [1] has as its target Acetylcholinesterase (Tetronarce californica, UniProt P04058). Kind of assay: Enzyme Inhibition Assay. Particulars: pH 8; 22 °C. As for the experimental part: (§1) The cholinesterase assays were performed using colorimetric method reported by Ellman. […] Each inhibitor was evaluated at several concentrations in the range from 1 nM to 20 uM.
Assay [2] concerns the target Acetylcholinesterase (Electrophorus electricus, UniProt O42275). Kind of assay: Enzyme Inhibition Assay. Particulars: pH 8; 22 °C. As for the experimental part:
as §1

Acetylcholinesterase (Electrophorus electricus, UniProt O42275), sequence (O42275 whole entry): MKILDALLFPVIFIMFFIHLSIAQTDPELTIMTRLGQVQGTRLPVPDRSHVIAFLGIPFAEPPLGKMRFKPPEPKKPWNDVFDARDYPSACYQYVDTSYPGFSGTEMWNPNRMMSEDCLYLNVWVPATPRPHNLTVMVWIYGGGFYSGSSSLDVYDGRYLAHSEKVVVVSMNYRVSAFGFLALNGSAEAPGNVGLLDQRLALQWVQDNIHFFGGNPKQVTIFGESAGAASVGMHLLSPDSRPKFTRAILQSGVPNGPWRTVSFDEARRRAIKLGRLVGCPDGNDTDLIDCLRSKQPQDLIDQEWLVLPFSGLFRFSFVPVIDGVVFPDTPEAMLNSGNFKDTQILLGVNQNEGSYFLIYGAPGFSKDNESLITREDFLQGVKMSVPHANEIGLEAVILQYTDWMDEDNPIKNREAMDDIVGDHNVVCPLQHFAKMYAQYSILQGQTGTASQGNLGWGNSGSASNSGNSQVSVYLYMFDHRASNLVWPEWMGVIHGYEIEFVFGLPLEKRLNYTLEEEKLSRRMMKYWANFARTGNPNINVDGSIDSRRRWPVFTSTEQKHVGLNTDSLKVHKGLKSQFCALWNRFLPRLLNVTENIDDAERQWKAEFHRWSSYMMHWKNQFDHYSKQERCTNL
Acetylcholinesterase (Tetronarce californica, UniProt P04058), sequence (P04058 whole entry): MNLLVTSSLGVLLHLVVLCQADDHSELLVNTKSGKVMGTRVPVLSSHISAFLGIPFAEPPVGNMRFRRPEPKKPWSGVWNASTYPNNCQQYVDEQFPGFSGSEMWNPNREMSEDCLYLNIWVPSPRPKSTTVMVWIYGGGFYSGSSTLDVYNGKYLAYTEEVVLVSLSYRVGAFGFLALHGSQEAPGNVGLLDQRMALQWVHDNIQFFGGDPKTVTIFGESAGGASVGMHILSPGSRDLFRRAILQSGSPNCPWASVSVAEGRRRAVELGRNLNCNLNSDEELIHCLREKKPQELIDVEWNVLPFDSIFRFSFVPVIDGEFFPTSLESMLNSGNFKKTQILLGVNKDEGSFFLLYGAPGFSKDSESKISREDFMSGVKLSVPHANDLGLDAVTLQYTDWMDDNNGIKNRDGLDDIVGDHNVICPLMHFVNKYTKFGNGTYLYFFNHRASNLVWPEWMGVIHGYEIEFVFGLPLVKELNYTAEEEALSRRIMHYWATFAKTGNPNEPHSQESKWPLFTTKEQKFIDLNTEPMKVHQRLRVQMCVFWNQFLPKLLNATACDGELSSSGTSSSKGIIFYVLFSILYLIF

On to `COc1ccc2c3c1O[C@H]1C[C@@H](O)C=C[C@@]31CC[N+](C)=C2` [galanthamine deriv. 14], for which the figures for the IC50 in assay [1] and in assay [2] were 702 nM and 266 nM, respectively.
For `COc1ccc2c3c1O[C@H]1C[C@@H](O)C=C[C@@]31CCN(CCCCCCCCN1C(=O)c3ccccc3C1=O)C2` [galanthamine deriv. 3d], in that order: 38 nM and 72 nM.
`COc1ccc2c3c1O[C@H]1C[C@@H](O)C=C[C@@]31CC[N+](CCCCCCCCN1C(=O)c3ccccc3C1=O)=C2` [(1S,12S,14R)-4-[8-(1,3-dioxo-2,3-dihydro-1H-isoindol-2-yl)octyl]-14-hydroxy-9-methoxy-11-oxa-4-azatetracyclo[8.6.1.0^{1,12}.0^{6,17}]heptadeca-4,6,8,10(17),15-pentaen-4-ium] came in with an IC50 in assay [1] of 4 nM.
For `C[N+]1=Cc2ccc(OCCCCCCCCN3C(=O)c4ccccc4C3=O)c3c2[C@@]2(C=C[C@H](O)C[C@@H]2O3)CC1` [(1S,12S,14R)-9-{[8-(1,3-dioxo-2,3-dihydro-1H-isoindol-2-yl)octyl]oxy}-14-hydroxy-4-methyl-11-oxa-4-azatetracyclo[8.6.1.0^{1,12}.0^{6,17}]heptadeca-4,6,8,10(17),15-pentaen-4-ium], the results for the IC50 in assay [1] and in assay [2] were 499 nM and 203 nM, respectively.
